Test results as given in patent US20230136297A1, “Methods Of Treating Fabry Disease In Patients Having A Mutation In The GLA Gene” (Amicus Therapeutics, Inc., priority 2020, published 2023).
Where a chain is given by its changes, count along the chain named.

Key:
Assay in all cases: α-Gal A activity in lysates of transfected HEK-293 cells ± migalastat (HEK assay)
Assay type in all cases: cell-based
[1] = molecular target: T1, α-Gal A mutant form G375A (Homo sapiens, UniProt P06280, G375A)
T1 construct: expressed in transfected cells; host or cells: HEK-293
T1 sequence (P06280 32-429 G375A): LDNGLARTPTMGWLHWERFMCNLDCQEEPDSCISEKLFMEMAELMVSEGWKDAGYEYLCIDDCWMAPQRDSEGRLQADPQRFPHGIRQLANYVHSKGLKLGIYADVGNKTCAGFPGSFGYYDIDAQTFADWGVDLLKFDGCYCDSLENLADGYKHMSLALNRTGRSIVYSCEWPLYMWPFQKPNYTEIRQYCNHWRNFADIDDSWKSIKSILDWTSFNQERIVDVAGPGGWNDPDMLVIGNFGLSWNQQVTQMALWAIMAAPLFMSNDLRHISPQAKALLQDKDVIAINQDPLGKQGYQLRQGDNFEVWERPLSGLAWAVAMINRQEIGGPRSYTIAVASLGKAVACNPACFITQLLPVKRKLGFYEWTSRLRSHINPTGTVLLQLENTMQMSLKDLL
Text: (§1) Such mutations or variants are also referred to herein as “HEK assay amenable” mutations or variants.
(§2) The α-Gal A activity is expressed as the nmoles of free 4-MU released per milligram of protein per hour (nmol/mg/hr).

[2] = molecular target: T2, α-Gal A mutant form N419D (Homo sapiens, UniProt P06280, N419D)
T2 construct: expressed in transfected cells; host or cells: HEK-293
T2 sequence (P06280 32-429 N419D): T1 sequence (P06280 32-429 G375A) with A344G, N388D
Text: as §1, §2

[3] = molecular target: T3, α-Gal A mutant form D182G (Homo sapiens, UniProt P06280, D182G)
T3 construct: expressed in transfected cells; host or cells: HEK-293
T3 sequence (P06280 32-429 D182G): T1 sequence (P06280 32-429 G375A) with D151G, A344G
Text: as §1, §2

[4] = molecular target: T4, α-Gal A mutant form P259S (Homo sapiens, UniProt P06280, P259S)
T4 construct: expressed in transfected cells; host or cells: HEK-293
T4 sequence (P06280 32-429 P259S): T1 sequence (P06280 32-429 G375A) with P228S, A344G
Text: as §1, §2

[5] = molecular target: T5, α-Gal A mutant form S276T (Homo sapiens, UniProt P06280, S276T)
T5 construct: expressed in transfected cells; host or cells: HEK-293
T5 sequence (P06280 32-429 S276T): T1 sequence (P06280 32-429 G375A) with S245T, A344G
Text: as §1, §2

[6] = 10 μM migalastat minus baseline
[7] = HEK-293 lysates, 10 μM migalastat 5 days, mean ± SEM

OC[C@H]1NC[C@H](O)[C@@H](O)[C@H]1O [migalastat, (2R,3S,4R,5S)-2-(hydroxymethyl) piperdine-3,4,5-triol]
Absolute increase (% WT) [1, 6]: 12 % WT
Relative increase ([1]; 10 μM migalastat ÷ baseline): 1.23
10 μM migalastat α-Gal A activity [1, 7]: 24212 ± 1520 nmol/mg/h
10 μM migalastat α-Gal A activity (% WT) [1, 7]: 66.8 ± 2.4 % WT
Absolute increase (% WT) [2, 6]: 12.6 % WT
Relative increase ([2]; 10 μM migalastat ÷ baseline): 1.37
10 μM migalastat α-Gal A activity [2, 7]: 14558 ± 678 nmol/mg/h
10 μM migalastat α-Gal A activity (% WT) [2, 7]: 44.1 ± 2.9 % WT
Absolute increase (% WT) [3, 6]: 45.6 % WT
Relative increase ([3]; 10 μM migalastat ÷ baseline): 1.56
10 μM migalastat α-Gal A activity [3, 7]: 43772 ± 4156 nmol/mg/h
10 μM migalastat α-Gal A activity (% WT) [3, 7]: 129.6 ± 9.7 % WT
Absolute increase (% WT) [4, 6]: 35.5 % WT
Relative increase ([4]; 10 μM migalastat ÷ baseline): 1.86
10 μM migalastat α-Gal A activity [4, 7]: 28621 ± 3141 nmol/mg/h
10 μM migalastat α-Gal A activity (% WT) [4, 7]: 79.8 ± 4.8 % WT
Absolute increase (% WT) [5, 6]: 8.3 % WT
Relative increase ([5]; 10 μM migalastat ÷ baseline): 7.5
10 μM migalastat α-Gal A activity [5, 7]: 4104 ± 439 nmol/mg/h
10 μM migalastat α-Gal A activity (% WT) [5, 7]: 9.6 ± 0.9 % WT
